Reference: patent publication US20230233569A1 (Revolution Medicines, Inc., priority 2020, published 2023)
Like-named read-outs stand apart in the source and are kept apart here.

Assays:
[1] = system: Capan-1 (K-Ras G12V); assay: CellTiter-Glo cell viability assay, 5-day treatment; assay type: cell-based; conditions: Homo sapiens, CAPAN-1, 120 h, 5-day treatment; read-out: Capan-1 Cell Viability assay data (K-Ras G12V, IC50)
Summary of the method: (§1)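 Compounds were dispensed directly onto seeded cells and incubated for 5 days, then plates were equilibrated to room temperature for about 30 minutes before luminescence reading. Signals were expressed as percent of the mean DMSO control and fitted with a four-parameter logistic curve.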

[2] = system: NCI-H358 (K-Ras G12C); assay: as above; assay type: cell-based; conditions: Homo sapiens, NCI-H358, 120 h, 5-day treatment; read-out: H358 Cell Viability assay data (K-Ras G12C, IC50)
Summary of the method: as §1

[3] = target: KRAS G12C (Homo sapiens, UniProt P01116+P62937, G12C); assay: Disruption of BRAF RBD interaction with Ras (FRET / MOA assay, with Cyclophilin A); assay type: biochemical
Chain of KRAS G12C (P01116 1-169 isoform P01116-2 G12C): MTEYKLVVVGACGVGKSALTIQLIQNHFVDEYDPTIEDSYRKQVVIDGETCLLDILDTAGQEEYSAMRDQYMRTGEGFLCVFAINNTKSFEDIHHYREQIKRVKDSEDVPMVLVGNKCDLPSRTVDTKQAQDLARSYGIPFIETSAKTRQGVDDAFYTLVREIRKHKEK
Chain of KRAS G12C (P62937 whole entry): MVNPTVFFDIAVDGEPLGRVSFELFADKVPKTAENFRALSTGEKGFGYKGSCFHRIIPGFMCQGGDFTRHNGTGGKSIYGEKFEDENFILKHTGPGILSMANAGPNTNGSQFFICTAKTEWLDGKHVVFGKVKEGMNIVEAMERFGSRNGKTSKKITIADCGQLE
Summary of the method: (§2)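 First, compounds at a ten-point threefold dilution series (highest final concentration 30 μM) were incubated with nucleotide-loaded K-Ras, Cyclophilin A and BRAF RBD for 3 h at 25 °C. Next, detection antibodies were added for 1.5 h. Finally, IC50 was calculated from TR-FRET ratio decreases against DMSO controls.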

[4] = target: KRAS G12D (Homo sapiens, UniProt P01116+P62937, G12D); assay: as above; assay type: biochemical
Chain of KRAS G12D (P01116 1-169 isoform P01116-2 G12D limits assumed): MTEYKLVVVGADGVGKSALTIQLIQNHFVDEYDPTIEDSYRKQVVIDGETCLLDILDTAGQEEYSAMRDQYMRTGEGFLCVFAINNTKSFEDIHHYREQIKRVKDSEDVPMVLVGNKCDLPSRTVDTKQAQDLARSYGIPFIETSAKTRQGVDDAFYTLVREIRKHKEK
Chain of KRAS G12D (P62937 whole entry): as the sequence (P62937 whole entry) above
Summary of the method: as §2

[5] = target: KRAS G12S (Homo sapiens, UniProt P01116+P62937, G12S); assay: as above; assay type: biochemical
Chain of KRAS G12S (P01116 1-169 isoform P01116-2 G12S limits assumed): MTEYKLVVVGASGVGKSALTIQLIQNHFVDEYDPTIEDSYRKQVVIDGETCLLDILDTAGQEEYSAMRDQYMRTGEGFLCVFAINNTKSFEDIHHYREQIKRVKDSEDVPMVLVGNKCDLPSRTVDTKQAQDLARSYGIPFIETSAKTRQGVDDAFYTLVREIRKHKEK
Chain of KRAS G12S (P62937 whole entry): as the sequence (P62937 whole entry) above
Summary of the method: as §2

[6] = target: KRAS G12V (Homo sapiens, UniProt P01116+P62937, G12V); assay: as above; assay type: biochemical
Chain of KRAS G12V (P01116 1-169 isoform P01116-2 G12V limits assumed): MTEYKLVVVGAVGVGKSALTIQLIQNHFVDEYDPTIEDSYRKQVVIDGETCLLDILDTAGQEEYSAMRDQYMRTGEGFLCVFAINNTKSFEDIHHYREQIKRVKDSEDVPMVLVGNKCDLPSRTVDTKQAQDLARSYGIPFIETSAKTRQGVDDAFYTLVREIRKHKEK
Chain of KRAS G12V (P62937 whole entry): as the sequence (P62937 whole entry) above
Summary of the method: as §2

[7] = target: KRAS G13C (Homo sapiens, UniProt P01116+P62937, G13C); assay: as above; assay type: biochemical
Chain of KRAS G13C (P01116 1-169 isoform P01116-2 G13C): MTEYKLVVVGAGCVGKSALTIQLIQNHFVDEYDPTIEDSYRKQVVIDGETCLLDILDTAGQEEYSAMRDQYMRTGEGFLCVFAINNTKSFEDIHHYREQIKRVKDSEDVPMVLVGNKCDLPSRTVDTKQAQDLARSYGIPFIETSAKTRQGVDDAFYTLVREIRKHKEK
Chain of KRAS G13C (P62937 whole entry): as the sequence (P62937 whole entry) above
Summary of the method: as §2

[8] = target: KRAS G13D (Homo sapiens, UniProt P01116+P62937, G13D); assay: as above; assay type: biochemical
Chain of KRAS G13D (P01116 1-169 isoform P01116-2 G13D limits assumed): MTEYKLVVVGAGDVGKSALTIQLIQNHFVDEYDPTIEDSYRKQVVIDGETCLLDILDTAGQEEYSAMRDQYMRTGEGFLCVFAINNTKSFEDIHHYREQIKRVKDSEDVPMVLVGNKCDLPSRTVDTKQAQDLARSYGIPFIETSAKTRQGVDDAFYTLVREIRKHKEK
Chain of KRAS G13D (P62937 whole entry): as the sequence (P62937 whole entry) above
Summary of the method: as §2

[9] = target: KRAS WT (Homo sapiens, UniProt P01116+P62937); assay: as above; assay type: biochemical
Chain of KRAS WT (P01116 1-169 isoform P01116-2 limits assumed): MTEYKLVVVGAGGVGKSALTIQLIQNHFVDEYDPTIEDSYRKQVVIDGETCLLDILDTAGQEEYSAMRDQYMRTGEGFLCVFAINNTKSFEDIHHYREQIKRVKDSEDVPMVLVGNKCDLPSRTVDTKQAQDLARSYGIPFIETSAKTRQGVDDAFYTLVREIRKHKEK
Chain of KRAS WT (P62937 whole entry): as the sequence (P62937 whole entry) above
Summary of the method: as §2

[10] = target: NRAS G12C (Homo sapiens, UniProt P01111+P62937, G12C); assay: as above; assay type: biochemical
Chain of NRAS G12C (P01111 whole entry G12C): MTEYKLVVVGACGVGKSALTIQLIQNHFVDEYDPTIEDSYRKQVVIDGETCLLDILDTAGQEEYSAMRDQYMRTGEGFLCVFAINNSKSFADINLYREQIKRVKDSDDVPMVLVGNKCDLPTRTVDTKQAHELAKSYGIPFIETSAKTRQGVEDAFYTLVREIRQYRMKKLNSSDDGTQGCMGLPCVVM
Chain of NRAS G12C (P62937 whole entry): as the sequence (P62937 whole entry) above

[11] = read-out: KRAS G12C FRET data, IC50
[12] = read-out: KRAS G12D FRET data, IC50
[13] = read-out: KRAS G12S FRET data, IC50
[14] = KRAS G12V, read-out: KRAS G12V FRET data IC50
[15] = read-out: KRAS G13C FRET data, IC50
[16] = KRAS G13D, read-out: KRAS G13D FRET data IC50
[17] = KRAS WT, read-out: KRAS WT FRET data IC50
[18] = NRAS G12C, read-out: NRAS G12C FRET data IC50

Structure (SMILES) | IC50 [2] [µM] | IC50 [3, 11] [µM] | IC50 [4, 12] [µM] | IC50 [5, 13] [µM] | IC50 [6, 14] [µM] | IC50 [7, 15] [µM] | IC50 [8, 16] [µM] | IC50 [9, 17] [µM] | IC50 [10, 18] [µM] | IC50 ([3]; KRAS G12C FRET data, IC50) [µM] | IC50 ([4]; KRAS G12D FRET data, IC50) [µM] | IC50 ([5]; KRAS G12S FRET data, IC50) [µM] | IC50 ([6]; KRAS G12V FRET data IC50, KRAS G12V) [µM] | IC50 ([7]; KRAS G13C FRET data, IC50) [µM] | IC50 ([8]; KRAS G13D FRET data IC50, KRAS G13D) [µM] | IC50 ([9]; KRAS WT FRET data IC50, KRAS WT) [µM] | IC50 ([10]; NRAS G12C FRET data IC50, NRAS G12C) [µM] | IC50 [1] [µM]
CCn1c(-c2cccnc2[C@H](C)OC)c2c3cc(ccc31)-c1csc(n1)C[C@H](NC(=O)[C@H](C(C)C)N(C)C(=O)[C@H]1CCN(C)C1)C(=O)N1CCC[C@H](N1)C(=O)OCC(C)(C)C2 [Example A108] |  | 1 to 10 | 1 to 10 | 1 to 10 | > 10 | 1 to 10 | 1 to 10 | 1 to 10 | 1 to 10 |  |  |  |  |  |  |  |  | > 10
CCn1c(-c2cccnc2[C@H](C)OC)c2c3cc(ccc31)-c1cccc(c1)C[C@H](NC(=O)[C@H](C(C)C)N(C)C(=O)[C@H]1CCN(CCO)C1)C(=O)N1CCC[C@H](N1)C(=O)OCC(C)(C)C2 [Example A109] |  | 1 to 10 | 1 to 10 | 1 to 10 | > 10 | 0.1 to 1 | 1 to 10 | 1 to 10 | 1 to 10 |  |  |  |  |  |  |  |  | > 10
CCn1c(-c2cccnc2[C@H](C)OC)c2c3cc(ccc31)-c1cccc(c1)C[C@H](NC(=O)[C@H](C(C)C)N(C)C(=O)[C@H]1CCN(C(=O)C(C)(C)N(C)C)C1)C(=O)N1CCC[C@H](N1)C(=O)OCC(C)(C)C2 [Example A112] |  | 1 to 10 | 1 to 10 | 1 to 10 | 1 to 10 | 1 to 10 | 1 to 10 | 1 to 10 | 1 to 10 |  |  |  |  |  |  |  |  | 1 to 10
CCn1c(-c2cccnc2[C@H](C)OC)c2c3cc(ccc31)-c1csc(n1)C[C@H](NC(=O)[C@H](C(C)C)N(C)C(=O)[C@H]1CCN(C(=O)C(C)(C)N(C)C)C1)C(=O)N1CCC[C@H](N1)C(=O)OCC(C)(C)C2 [Example A113] |  | 1 to 10 | 1 to 10 | 1 to 10 | 1 to 10 | 1 to 10 | 1 to 10 | 1 to 10 | 1 to 10 |  |  |  |  |  |  |  |  | 1 to 10
CCn1c(-c2cccnc2[C@H](C)OC)c2c3cc(ccc31)-c1cc(O)cc(c1)C[C@H](NC(=O)[C@H](C(C)C)N(C)C(=O)C1CCNCC1)C(=O)N1CCC[C@H](N1)C(=O)OCC(C)(C)C2 [Example A122] |  |  |  |  |  |  |  |  |  | 0.1 to 1 | 0.1 to 1 | 0.1 to 1 | 1 to 10 | 0.1 to 1 | 0.1 to 1 | 0.1 to 1 | 0.1 to 1 | > 10
CCn1c(-c2cccnc2[C@H](C)OC)c2c3cc(ccc31)-c1cc(O)cc(c1)C[C@H](NC(=O)[C@H](C(C)C)N(C)C(=O)C1CC13CCNCC3)C(=O)N1CCC[C@H](N1)C(=O)OCC(C)(C)C2 (stereo partly drawn) [Example A151] |  | 0.01 to 0.1 | 0.1 to 1 | 0.1 to 1 | 0.1 to 1 | 0.01 to 0.1 | 0.01 to 0.1 | 0.01 to 0.1 | 0.01 to 0.1 |  |  |  |  |  |  |  |  | > 10
CCn1c(-c2cccnc2[C@H](C)OC)c2c3cc(ccc31)-c1cc(O)cc(c1)C[C@H](NC(=O)[C@@H]1C[C@H]1C)C(=O)N1CCC[C@H](N1)C(=O)OCC(C)(C)C2 [Example A183] |  | 0.1 to 1 | > 10 | 1 to 10 | 1 to 10 | 0.1 to 1 | 1 to 10 | 1 to 10 | 1 to 10 |  |  |  |  |  |  |  |  | 1 to 10
C=CC(=O)N1CC[C@H](C(=O)Nc2ccccc2C(=O)N[C@H]2Cc3cc(O)cc(c3)-c3ccc4c(c3)c(c(-c3cnccc3COC)n4CC)CC(C)(C)COC(=O)[C@@H]3CCCN(N3)C2=O)C1 [Example A229] |  | 0.01 to 0.1 | 0.1 to 1 | 0.1 to 1 | 0.1 to 1 | 0.01 to 0.1 | 0.01 to 0.1 | 0.1 to 1 | 0.01 to 0.1 |  |  |  |  |  |  |  |  | 1 to 10
CCn1c(-c2cccnc2[C@H](C)OC)c2c3cc(ccc31)-c1cc(O)cc(c1)C[C@H](NC(=O)[C@H](C(C)C)N(C)C(=O)[C@H]1CCN(C(=O)[C@]3(C)CCCN3C)C1)C(=O)N1CCC[C@H](N1)C(=O)OCC(C)(C)C2 [Example A342] | 0.01 to 0.1 |  |  |  |  |  |  |  | 0.01 to 0.1 |  |  |  |  |  |  |  |  | 0.1 to 1

Continued, in another order:

IC50 [2] [µM] | IC50 [3, 11] [µM] | IC50 [4, 12] [µM] | IC50 [5, 13] [µM] | IC50 [6, 14] [µM] | IC50 [7, 15] [µM] | IC50 [8, 16] [µM] | IC50 [9, 17] [µM] | IC50 [10, 18] [µM] | IC50 ([3]; KRAS G12C FRET data, IC50) [µM] | IC50 ([4]; KRAS G12D FRET data, IC50) [µM] | IC50 ([5]; KRAS G12S FRET data, IC50) [µM] | IC50 ([6]; KRAS G12V FRET data IC50, KRAS G12V) [µM] | IC50 ([7]; KRAS G13C FRET data, IC50) [µM] | IC50 ([8]; KRAS G13D FRET data IC50, KRAS G13D) [µM] | IC50 ([9]; KRAS WT FRET data IC50, KRAS WT) [µM] | IC50 ([10]; NRAS G12C FRET data IC50, NRAS G12C) [µM] | Structure (SMILES) | IC50 [1] [µM]
0.01 to 0.1 | 0.01 to 0.1 | 0.1 to 1 | 0.01 to 0.1 | 0.01 to 0.1 | 0.01 to 0.1 | 0.01 to 0.1 | 0.01 to 0.1 | 0.01 to 0.1 |  |  |  |  |  |  |  |  | CCn1c(-c2cccnc2[C@H](C)OC)c2c3cc(ccc31)-c1cc(O)cc(c1)C[C@H](NC(=O)[C@H](C(C)C)N(C)C(=O)[C@H]1CCN(C(=O)C(C)(C)N(C)C)C1)C(=O)N1CCC[C@H](N1)C(=O)OCC(C)(C)C2 (atropisomer, axis not shown) [Example A114] | 0.01 to 0.1
 | 0.01 to 0.1 | 0.01 to 0.1 | 0.01 to 0.1 | 0.01 to 0.1 | 0.01 to 0.1 | 0.01 to 0.1 | 0.01 to 0.1 | 0.01 to 0.1 |  |  |  |  |  |  |  |  | CCn1c(-c2cccnc2[C@H](C)OC)c2c3cc(ccc31)-c1cc(O)cc(c1)C[C@H](NC(=O)[C@H](C(C)C)N(C)C(=O)[C@H]1CCN(C(=O)[C@@]3(C)CCCN3)C1)C(=O)N1CCC[C@H](N1)C(=O)OCC(C)(C)C2 [Example A135] | 1 to 10
0.1 to 1 |  |  | 0.01 to 0.1 | 0.01 to 0.1 |  |  |  | 0.01 to 0.1 |  |  |  |  |  |  |  |  | CCn1c(-c2cccnc2[C@H](C)OC)c2c3cc(ccc31)-c1cc(O)cc(c1)C[C@H](NC(=O)[C@H](C(C)C)N(C)C(=O)C1(CN)CC1)C(=O)N1CCC[C@H](N1)C(=O)OCC(C)(C)C2 [Example A139] | 0.1 to 1
 | 0.01 to 0.1 | 0.1 to 1 | 0.1 to 1 | 0.1 to 1 | 0.01 to 0.1 | 0.1 to 1 | 0.01 to 0.1 | 0.1 to 1 |  |  |  |  |  |  |  |  | C=C[C@@H]1C[C@]1(N)C(=O)N(C)[C@H](C(=O)N[C@H]1Cc2cc(O)cc(c2)-c2ccc3c(c2)c(c(-c2cccnc2[C@H](C)OC)n3CC)CC(C)(C)COC(=O)[C@@H]2CCCN(N2)C1=O)C(C)C [Example A149] | 1 to 10
0.01 to 0.1 |  |  |  | 0.01 to 0.1 |  |  |  |  |  |  |  |  |  |  |  |  | CCn1c(-c2cccnc2[C@H](C)OC)c2c3cc(ccc31)-c1cc(O)cc(c1)C[C@H](NC(=O)[C@H](C(C)C)N(C)C(=O)[C@H]1C[C@H]1F)C(=O)N1CCC[C@H](N1)C(=O)OCC(C)(C)C2 [Example A162] | 0.01 to 0.1
